Experimental data as given in ChEMBL document CHEMBL1158796, “Hectochlorin and morpholine derivatives from the Thai sea hare, Bursatella leachii” (2005).

What was measured:
Assay type in all cases: functional
Conditions in all cases: read-out: ED50 (the source's name)
[1] = Cytotoxicity against human BC cells by SRB assay
NCI-H187 = assay: Cytotoxicity against human NCI-H187 cells by SRB assay
KB = assay: Cytotoxicity against human KB cells by SRB assay

SMILES	EC50 [1]	EC50 (NCI-H187)	EC50 (KB)
C[C@@H]1C(=O)O[C@@H](C(C)(C)O)c2nc(cs2)C(=O)OC(C)(C)[C@H](O)c2nc(cs2)C(=O)O[C@H]1CCCC(C)(Cl)Cl [DEACETYLHECTOCHLORIN]	1030 nM	320 nM	310 nM
CC(=O)O[C@@H]1c2nc(cs2)C(=O)O[C@@H](CCCC(C)(Cl)Cl)[C@H](C)C(=O)O[C@@H](C(C)(C)O)c2nc(cs2)C(=O)OC1(C)C [HECTOCHLORIN]	–	1200 nM	860 nM
